Assay [1] deals with T1, Mineralocorticoid Receptor of the Rats' Kidney (Rattus norvegicus, UniProt P22199).
T1 construct: The kidneys were then removed, decapsulated and homogenized at 0° C; from tissue; host or cells: kidney cytosol (105,000 g supernatant) of adrenalectomised male Sprague-Dawley rats
T1 sequence (P22199 1-981): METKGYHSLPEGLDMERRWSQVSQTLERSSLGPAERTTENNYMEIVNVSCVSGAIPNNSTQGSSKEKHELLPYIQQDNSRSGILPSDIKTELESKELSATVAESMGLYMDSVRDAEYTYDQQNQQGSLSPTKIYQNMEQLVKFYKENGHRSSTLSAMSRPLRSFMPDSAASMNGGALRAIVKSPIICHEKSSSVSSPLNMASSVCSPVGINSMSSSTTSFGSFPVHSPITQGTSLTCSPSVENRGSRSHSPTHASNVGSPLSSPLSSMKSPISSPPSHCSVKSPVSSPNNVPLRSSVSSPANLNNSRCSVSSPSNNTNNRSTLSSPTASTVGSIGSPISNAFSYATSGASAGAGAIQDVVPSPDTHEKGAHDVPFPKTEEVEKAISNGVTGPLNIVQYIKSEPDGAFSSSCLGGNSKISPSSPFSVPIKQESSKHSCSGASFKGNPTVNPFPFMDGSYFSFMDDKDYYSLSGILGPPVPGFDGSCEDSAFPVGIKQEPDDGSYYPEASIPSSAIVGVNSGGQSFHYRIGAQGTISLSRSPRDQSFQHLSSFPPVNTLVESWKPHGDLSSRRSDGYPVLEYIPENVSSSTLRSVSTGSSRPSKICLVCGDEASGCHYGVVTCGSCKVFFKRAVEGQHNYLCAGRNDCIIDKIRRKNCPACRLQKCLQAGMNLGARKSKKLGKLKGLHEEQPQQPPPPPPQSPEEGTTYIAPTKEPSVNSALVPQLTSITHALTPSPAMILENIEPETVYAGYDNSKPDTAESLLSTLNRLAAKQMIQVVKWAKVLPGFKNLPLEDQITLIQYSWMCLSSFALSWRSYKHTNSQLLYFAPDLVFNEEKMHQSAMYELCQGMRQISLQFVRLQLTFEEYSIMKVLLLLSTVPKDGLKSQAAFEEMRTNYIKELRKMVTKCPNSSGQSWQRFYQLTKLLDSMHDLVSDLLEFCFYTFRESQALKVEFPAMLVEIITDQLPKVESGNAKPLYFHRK
Description: Relative affinity of the bond, mineralocorticoid receptor (tritiated aldosterone displacement). Format: binding. As to conditions: RAB=100(CH)/(CX); for Relative affinity of the bond (RAB), Mineralocorticoid, 1 H: incubation 1 H at 0° C.; for Relative affinity of the bond (RAB), Mineralocorticoid, 24 H: incubation 24 H at 0° C. Here is the method:
Mineralocorticoid Receptor of the Rats' Kidney:
Male Sprague-Dawley EOPS rats weighing 140 to 160 g were subjected to supraenalectomy 4 to 8 days earlier and were sacrificed and their kidneys were perfused in situ with 50 ml of a 10 mM Tris, 0.25 M saccharose, HCl buffer pH 7.4. The kidneys were then removed, decapsulated and homogenized at 0° C. with the aid of a Potter teflon-glass (1 g of tissue for 3 ml of buffer). The homogenate was centrifuged for 10 minutes at […] and 0° C. and then to eliminate the fixation of the tritiated aldosterone upon the glucocorticoid receptor, 11β-,17β-dihydroxy-21-methyl-Δ^1,4,6-pregnatrien-20-yn-3-one which was fixed uniquely upon the glucocorticoid receptor was added to the supernatant at a final concentration of 10^−6 M. This supernatant was ultracentrifuged at 105,000 g for 60 minutes at 0° C. and aliquots of the supernatant thus obtained were incubated at 0° C. with a constant concentration (T) of tritiated aldosterone in the presence of increasing concentrations ([…]) of the cold aldosterone or the cold product to be studied. After an incubation time (t), the concentration of bound tritiated aldosterone (B) was measured by the adsorption on dextran carbon technique.
(§1) Calculation of the Relative Affinty of the Bond
(§2) The calculation of the Relative Affinity of the Bond (RAB) was identical for all the receptors. The following 2 curves were traced; the percentage of the bound tritiated hormone [formula]
(§3) was a function of the logarithm of the concentration of the cold reference hormone and [formula]
(§4) as a function of the logarithm of the concentration of the cold product tested.
(§5) One determined the straight line of the equation [formula]
(§6) The intersections of the straight line I50 and of the curves make it possible to evaluate the concentrations of the cold reference hormone (CH) and of the tested cold product (CX) which inhibit to an extend of 50% the binding of the tritiated hormone upon the receptor. The relative affinity of the bond (RAB) of the tested product is determined by the equation

Assay [2] deals with T2, Estrogenic Receptor of Mouse Uterus (Mus musculus, UniProt P19785).
T2 construct: their uteri were removed, then homogenized at 0° C; from tissue; host or cells: uterine cytosol (105,000 g supernatant) of immature female mice
T2 sequence (P19785 1-599): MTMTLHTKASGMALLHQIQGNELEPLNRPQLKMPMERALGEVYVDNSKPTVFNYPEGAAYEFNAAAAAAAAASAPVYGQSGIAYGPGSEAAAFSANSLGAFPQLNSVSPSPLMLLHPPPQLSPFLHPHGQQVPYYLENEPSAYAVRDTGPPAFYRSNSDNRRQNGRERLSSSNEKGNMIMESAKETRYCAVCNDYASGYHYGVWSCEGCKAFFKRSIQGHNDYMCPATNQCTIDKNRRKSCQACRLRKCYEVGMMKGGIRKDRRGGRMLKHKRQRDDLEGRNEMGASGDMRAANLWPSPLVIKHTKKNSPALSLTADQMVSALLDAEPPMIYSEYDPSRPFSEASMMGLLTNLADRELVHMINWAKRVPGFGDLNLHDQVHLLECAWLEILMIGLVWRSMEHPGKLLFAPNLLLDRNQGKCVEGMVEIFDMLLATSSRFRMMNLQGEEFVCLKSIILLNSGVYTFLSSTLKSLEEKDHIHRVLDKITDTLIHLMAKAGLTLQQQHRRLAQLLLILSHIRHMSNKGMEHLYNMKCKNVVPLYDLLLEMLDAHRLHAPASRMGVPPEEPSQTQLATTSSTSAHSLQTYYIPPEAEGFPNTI
Description: Relative affinity of the bond, estrogen receptor (tritiated estradiol displacement). Format: binding. As to conditions: for Relative affinity of the bond (RAB), Oestrogen, 2 H: incubation 2 H at 0° C.; for Relative affinity of the bond (RAB), Oestrogen, 2 H / Relative affinity of the bond (RAB), Oestrogen, 6 H: RAB=100(CH)/(CX); for Relative affinity of the bond (RAB), Oestrogen, 6 H: incubation 6 H (second time); for affinity for the estrogen receptors: at the second time (incubation). The method, then:
Estrogenic Receptor of Mouse Uterus:
Impuberal female mice aged from 18 to 21 days were killed and their uteri were removed, then homogenized at 0° C. with the aid of a Potter teflon-glass in a TS buffered solution (10 mM Tris, 0.25 M saccharose, HCL pH 7.4) (1 g of tissue for 25 ml of TS). The homogenate was ultracentrifuged (105,000 g×90 min) at 0° C. and aliquots of the supernatant were incubated at 0° C. or at 25° C. for a time (t) with a constant concentration (T) of tritiated estradiol in the presence of increasing concentrations (0-1000×10^−9 M) either of cold estradiol, or of the cold product to be tested. The concentration (B) of bound tritiated estradiol was measured in each incubate by the technique of adsorption on dextran carbon.
as §1, §2, §3, §4, §5, §6

The record followed here is patent publication US6790971B1, “19-Nor-steroids” (Aventis Pharma S.A., priority 1989, dated 2004).

Consider `CCCCN(C)C(=O)CCCCCCCCCCC[C@H]1C[C@]2(C)[C@@H](O)CC[C@H]2[C@@H]2CCc3cc(O)ccc3[C@@H]12` [Example 24, N-butyl-3,17β-dihydroxy-N-methyl-11β-Δ^1,3,5(10)-estratriene dodecanamide], for which, in assay [1], the “Relative affinity of the bond (RAB), Mineralocorticoid, 1 H” value (“Relative affinity of the bond (RAB) … 1 H” for short) came to 0 and the “Relative affinity of the bond (RAB), Mineralocorticoid, 24 H” value (from here on “Relative affinity of the bond (RAB) … 24 H”) is recorded as 0. In addition, in assay [2], the “Relative affinity of the bond (RAB), Oestrogen, 2 H” value (shortened to “Relative affinity of the bond … 2 H”) is on record as 0.02 and the “Relative affinity of the bond (RAB), Oestrogen, 6 H” value (“Relative affinity of the bond … 6 H” for short) was 13.
Turning to `CC#C[C@]1(O)CC[C@H]2[C@@H]3CCC4=CC(=O)CCC4=C3[C@@H](CCCCCCCCCCC(=O)NCCCC)C[C@@]21C` [Example 22, N-butyl-17β-hydroxy-3-oxo-17α-(1-propynyl)-11β-Δ^4,9-estradiene undecanamide], in assay [1], the “Relative affinity of the bond (RAB) … 1 H” value is 0 and the “Relative affinity of the bond (RAB) … 24 H” value stood at 0. Moreover, in assay [2], the “Relative affinity of the bond … 2 H” value came to 0.01 and the “Relative affinity of the bond … 6 H” value amounted to 0.01.
Turning to `CN(C)CCN(C)C(=O)CCCCCCCCCC[C@H]1C[C@]2(C)[C@@H](O)CC[C@H]2[C@@H]2CCC3=CC(=O)CCC3=C12` [Example 19, N-[2-(dimethylamino)-ethyl]-17β-hydroxy-N-methyl-3-oxo-11β-Δ^4,9-estradiene undecanamide], in assay [1], the “Relative affinity of the bond (RAB) … 1 H” value amounted to 0.7 and the “Relative affinity of the bond (RAB) … 24 H” value turned out to be 0.1. In assay [2], the “Relative affinity of the bond … 2 H” value came out at 0.3 and the “Relative affinity of the bond … 6 H” value is on record as 0.8.
Turning to “N-butyl-3,17β-dihydroxy-N-methyl-19-nor-11β-Δ^1,3,5(10)-pregnatrien-20-yn undecanamide [Example 21]”, in assay [1], the “Relative affinity of the bond (RAB) … 1 H” value was found to be 0.4 and the “Relative affinity of the bond (RAB) … 24 H” value worked out at 0.5. Moreover, in assay [2], the “Relative affinity of the bond … 2 H” value stood at 0.06 and the “Relative affinity of the bond … 6 H” value came out at 7.4.
For `CCCCN(C)C(=O)CCCCCCCCCC[C@H]1C[C@]2(C)[C@@H](O)CC[C@H]2[C@@H]2CCc3cc(O)ccc3[C@@H]12` [Example 13, N-Butyl-3,17β-Dihydroxy-N-Methyl-11β-Δ^1,3,5(10)-Estratriene-Undecanamide], in assay [1], the “Relative affinity of the bond (RAB) … 1 H” value came out at 0.19 and the “Relative affinity of the bond (RAB) … 24 H” value came to 0.00. For the same molecule, in assay [2], the “affinity for the estrogen receptors” value is recorded as “marked affinity”; the “Relative affinity of the bond … 2 H” value turned out to be 0.13; the “Relative affinity of the bond … 6 H” value is listed as 27.
Regarding `CN(Cc1ccccc1)C(=O)CCCCCCCCCC[C@H]1C[C@]2(C)[C@@H](O)CC[C@H]2[C@@H]2CCC3=CC(=O)CCC3=C12` [Example 17, N-benzyl-17β-hydroxy-N-methyl-3-oxo-11β-Δ^4,9-estradiene undecanamide], in assay [1], the “Relative affinity of the bond (RAB) … 1 H” value turned out to be 2 and the “Relative affinity of the bond (RAB) … 24 H” value was 0.5. Moreover, in assay [2], the “Relative affinity of the bond … 2 H” value is 0.1 and the “Relative affinity of the bond … 6 H” value amounted to 0.01.
As to `CC(C)N(C)C(=O)CCCCCCCCCC[C@H]1C[C@]2(C)[C@@H](O)CC[C@H]2[C@@H]2CCc3cc(O)ccc3[C@@H]12` [Example 16, 3,17β-dihydroxy-N-methyl-N-isopropyl-11β-Δ^1,3,5(10)-estratriene undecanamide], in assay [1], the “Relative affinity of the bond (RAB) … 1 H” value is listed as 0 and the “Relative affinity of the bond (RAB) … 24 H” value is recorded as 0. Besides, in assay [2], the “affinity for the estrogen receptors” value is “marked affinity”; the “Relative affinity of the bond … 2 H” value is on record as 0.6; the “Relative affinity of the bond … 6 H” value is on record as 60.
